Molecules are shown by their SMILES. ≈ marks a conversion by molar mass, not a printed value.

Common to all, as to assay: MIC by micro broth dilution
Holding throughout (assay type): cell-based

Assay [1] deals with S. epidermidis ATCC 35984. As to conditions: Staphylococcus epidermidis, ATCC35984, read-out: Minimum inhibitory concentration (MIC). On the procedure:
(§1) MIC of DART molecules were determined by micro broth dilution as per CLSI guidelines. Bacterial strains were cultured in Brain Heart Infusion Agar (BHIA) at 37° C. for 24 h. For MIC determination, BHI broth (100 μl) was added to each of the wells of a 96 well plate. 100 μl of broth containing drug was added to the first well (1A to 1H) and thereafter serial (double) dilutions were carried out for up to 10 wells (column 1 to column 10 of the 96 well plate). Bacterial inoculum was prepared by adjusting the bacterial culture turbidity to 0.5 McFarland standard (approximately 1.5×10^8 cells/ml) and further diluted (100 times with sterile BHI broth). Diluted bacterial suspension (100 μl) was added to each well except sterility control wells (column 12 of 96 well plate). The plates were incubated at 37° C. for 24 h. The MIC of the test compound was measured after addition of Alamar blue dye.

The test system of assay [2] is S. aureus CCARM 3505. The following applies: Staphylococcus aureus, CCARM3505, read-out: Minimum inhibitory concentration (MIC). As to the method:
as §1

The test system of assay [3] is E. faecium NCIM 5421. As to conditions: Enterococcus faecium, NCIM5421, read-out: Minimum inhibitory concentration (MIC). On the procedure:
as §1

The test system of assay [4] is A. baumannii CCARM 12001. As to conditions: Acinetobacter baumannii, CCARM12001, read-out: Minimum inhibitory concentration (MIC). As to the method: as §1
Assay [5] concerns A. baumannii CCARM 12020. The following applies: Acinetobacter baumannii, CCARM12020, read-out: Minimum inhibitory concentration (MIC). On the procedure: as §1
Assay [6] concerns P. aeruginosa CCARM 2204. As to conditions: Pseudomonas aeruginosa, CCARM2204, read-out: Minimum inhibitory concentration (MIC). As to the method:
as §1

Assay [7] concerns E. aerogenes M2-1. The following applies: Klebsiella aerogenes, M21, read-out: Minimum inhibitory concentration (MIC). On the procedure: as §1
For assay [8], the system named is E. aerogenes NCIM 5139. The following applies: Klebsiella aerogenes, NCIM5139, read-out: Minimum inhibitory concentration (MIC). On the procedure: as §1
Assay [9] concerns E. coli BAA 196. As to conditions: Escherichia coli, BAA196, read-out: Minimum inhibitory concentration (MIC). As to the method:
as §1

In assay [10] the test system is S. aureus MTCC 6908. The following applies: Staphylococcus aureus, MTCC6908, read-out: Minimum inhibitory concentration (MIC). On the procedure: as §1
For assay [11], the system named is P. aeruginosa CCARM 2161. As to conditions: Pseudomonas aeruginosa, CCARM2161, read-out: Minimum inhibitory concentration (MIC). On the procedure:
as §1

The subject of assay [12] is S. aureus ATCC 43300. As to conditions: Staphylococcus aureus, ATCC43300; S. aureus ATCC 43300; read-out: Minimum inhibitory concentration (MIC). On the procedure: as §1
The subject of assay [13] is P. aeruginosa ATCC 27853. The following applies: Pseudomonas aeruginosa, ATCC27853, read-out: Minimum inhibitory concentration (MIC). As to the method: as §1
Assay [14] deals with E. coli MTCC 1687. As to conditions: Escherichia coli, MTCC1687, read-out: Minimum inhibitory concentration (MIC). On the procedure:
as §1

The subject of assay [15] is S. epidermidis S12-1. The following applies: Staphylococcus epidermidis, S121, read-out: Minimum inhibitory concentration (MIC). As to the method: as §1
Assay [16] relates to A. baumannii ATCC 1906. The following applies: Acinetobacter baumannii, ATCC1906, read-out: Minimum inhibitory concentration (MIC). As to the method:
as §1

In assay [17] the test system is K. pneumonia ATCC 13883. As to conditions: for activity in words: Klebsiella pneumonia (susceptible); for MIC: Klebsiella pneumoniae, ATCC13883, K. pneumonia ATCC 13883, read-out: Minimum inhibitory concentration (MIC). On the procedure: as §1

On to `Cc1ncc([N+](=O)[O-])n1CC(O)CN1CCN(c2cc3c(cc2F)c(=O)c(C(=O)O)c2n3C(C)S2)CC1` (stereo not shown) [Compound 1], for which the MIC is 0.13 µg/mL (≈ 0.244 µM) in [1]; 32 µg/mL (≈ 60.1 µM) in assay [2]; above 16 µg/mL in assay [3]; above 16 µg/mL in assay [4]; above 16 µg/mL in assay [5]; above 16 µg/mL in assay [6]. In addition, the MIC in assay [7] is above 16 µg/mL; in [8], above 16 µg/mL; in assay [9] it was 16 µg/mL (≈ 30 µM); in assay [10], 1.5 µg/mL (≈ 2.82 µM); in assay [11], above 16 µg/mL; in assay [12], 1 µg/mL (≈ 1.88 µM). For the same compound, the MIC in assay [13] was above 16 µg/mL; in assay [14] it was 16 µg/mL (≈ 30 µM); in [15] it was above 64 µg/mL; in assay [16], above 16 µg/mL.
On to `CC1Sc2c(C(=O)O)c(=O)c3cc(F)c(N4CCN(Cc5nc6ccc([N+](=O)[O-])cc6[nH]5)CC4)cc3n21` (stereo not shown) [Compound 18, 6-Fluoro-1-methyl-7-(4-((6-nitro-1H-benzo[d]imidazol-2-yl)methyl)piperazin-1-yl)-4-oxo-1H,4H-[1,3]thiazeto[3,2-a]quinoline-3-carboxylic acid], for which the MIC is 0.25 µg/mL (≈ 0.477 µM) in [1]; above 4 µg/mL in [2]; 0.5 µg/mL (≈ 0.953 µM) in assay [3]; 0.12 µg/mL (≈ 0.229 µM) in assay [17]; above 16 µg/mL in assay [6]; above 16 µg/mL in [7]. For the same compound, the MIC in assay [8] is 0.25 µg/mL (≈ 0.477 µM); in assay [9], above 4 µg/mL; in assay [10], 1 µg/mL (≈ 1.91 µM); in [11], above 16 µg/mL; in [12] it was 1 µg/mL (≈ 1.91 µM); in assay [13] it was above 16 µg/mL. Moreover, the MIC in [14] is above 4 µg/mL; in assay [15] it was above 16 µg/mL; in [16], 1 µg/mL (≈ 1.91 µM). For the same compound, the activity in words entry in assay [17] is “active”.
Consider `CC1Sc2c(C(=O)O)c(=O)c3cc(F)c(N4CCN(Cc5nc6cc(Cl)c(Cl)cc6[nH]5)CC4)cc3n21` (stereo not shown) [Compound 21, 7-(4-((5,6-Dichloro-1H-benzo[d]imidazol-2-yl)methyl)piperazin-1-yl)-6-fluoro-1-methyl-4-oxo-1H,4H-[1,3]thiazeto[3,2-a]quinoline-3-carboxylic acid], for which the MIC is below 0.03 µg/mL in assay [1]; above 16 µg/mL in assay [2]; 0.25 µg/mL (≈ 0.456 µM) in assay [3]; above 16 µg/mL in assay [4]; above 16 µg/mL in assay [5]; 0.5 µg/mL (≈ 0.912 µM) in assay [17]. The MIC in assay [6] is above 16 µg/mL; in assay [7], 16 µg/mL (≈ 29.2 µM); in [8] it was 16 µg/mL (≈ 29.2 µM); in [9], above 16 µg/mL; in assay [10] it was 0.25 µg/mL (≈ 0.456 µM); in assay [11] it was above 16 µg/mL. Besides, the MIC in assay [12] is 0.13 µg/mL (≈ 0.237 µM); in [13], 16 µg/mL (≈ 29.2 µM); in assay [14], 8 µg/mL (≈ 14.6 µM); in [15] it was above 16 µg/mL; in assay [16], 16 µg/mL (≈ 29.2 µM). The activity in words result in assay [17] was “active”.
With `CC1Sc2c(C(=O)O)c(=O)c3cc(F)c(N4CCN(C(=O)c5cccc(Br)n5)CC4)cc3n21` (stereo not shown) [Compound 32, 7-(4-(6-Bromopicolinoyl)piperazin-1-yl)-6-fluoro-1-methyl-4-oxo-1H,4H-[1,3]thiazeto[3,2-a]-quinoline-3-carboxylic acid], the MIC in assay [1] was 0.13 µg/mL (≈ 0.244 µM); in assay [2], 8 µg/mL (≈ 15 µM); in assay [4], above 16 µg/mL; in assay [5], above 16 µg/mL; in [17] it was 0.5 µg/mL (≈ 0.937 µM); in assay [6] it was above 16 µg/mL. Further, the MIC in [7] was 16 µg/mL (≈ 30 µM); in [8], 16 µg/mL (≈ 30 µM); in assay [9], 8 µg/mL (≈ 15 µM); in assay [10], 0.5 µg/mL (≈ 0.937 µM); in assay [11], above 16 µg/mL; in assay [12], 0.06 µg/mL (≈ 0.112 µM). Also, the MIC turned out to be 16 µg/mL (≈ 30 µM) in [13], 4 µg/mL (≈ 7.5 µM) in [14], 4 µg/mL (≈ 7.5 µM) in assay [15] and 2 µg/mL (≈ 3.75 µM) in [16]. In assay [17], the activity in words result is “active”.

For the origin of these results see patent publication US10570152B2, “Antibacterial therapeutics and prophylactics” (VYOME BIOSCIENCES PVT. LTD., priority 2015, dated 2020).
